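Here, GI50 denotes the concentration required for 50% inhibition of growth. At the TGI there is no net growth.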
Key:
Assay in all cases: NCI tumour cell line growth inhibition, 384-well format
786-0 renal = tested on: 786-0 renal
A498 renal = tested on: A498 renal
A549 NSCLC = tested on: A549 NSCLC
ACHN renal = tested on: ACHN renal
BT-549 breast = tested on: BT-549 breast
CAKI-1 renal = tested on: CAKI-1 renal
CCRF-CEM leukemia = tested on: CCRF-CEM leukemia
COLO 205 colon = tested on: COLO 205 colon
DU-145 prostate = tested on: DU-145 prostate
EKVX NSCLC = tested on: EKVX NSCLC
HCC-2998 colon = tested on: HCC-2998 colon
HCT-15 colon = tested on: HCT-15 colon
HL-60(TB) leukemia = tested on: HL-60(TB) leukemia
HOP-62 NSCLC = tested on: HOP-62 NSCLC
HOP-92 NSCLC = tested on: HOP-92 NSCLC
HS 578T breast = tested on: HS 578T breast
HT29 colon = tested on: HT29 colon
IGROV1 ovarian = tested on: IGROV1 ovarian
K-562 leukemia = tested on: K-562 leukemia
KM12 colon = tested on: KM12 colon
LOX IMVI melanoma = tested on: LOX IMVI melanoma
M14 melanoma = tested on: M14 melanoma
MALME-3M melanoma = tested on: MALME-3M melanoma
MCF7 breast = tested on: MCF7 breast
MDA-MB-231 breast = tested on: MDA-MB-231 breast
MDA-MB-435 melanoma = tested on: MDA-MB-435 melanoma
MDA-MB-468 breast = tested on: MDA-MB-468 breast
MOLT-4 leukemia = tested on: MOLT-4 leukemia
NCI-H226 lung = tested on: NCI-H226 lung
NCI-H23 lung = tested on: NCI-H23 lung
NCI-H322M lung = tested on: NCI-H322M lung
NCI-H460 NSCLC = tested on: NCI-H460 NSCLC
NCI-H522 lung = tested on: NCI-H522 lung
NCI/ADR-RES ovarian = tested on: NCI/ADR-RES ovarian
OVCAR-3 ovarian = tested on: OVCAR-3 ovarian
OVCAR-4 ovarian = tested on: OVCAR-4 ovarian
OVCAR-5 ovarian = tested on: OVCAR-5 ovarian
OVCAR-8 ovarian = tested on: OVCAR-8 ovarian
PC-3 prostate = tested on: PC-3 prostate
RPMI-8226 leukemia = tested on: RPMI-8226 leukemia
RXF 393 renal = tested on: RXF 393 renal
SF-268 CNS = tested on: SF-268 CNS
SF-295 CNS = tested on: SF-295 CNS
SF-539 CNS = tested on: SF-539 CNS
SK-MEL-28 melanoma = tested on: SK-MEL-28 melanoma
SK-MEL-5 melanoma = tested on: SK-MEL-5 melanoma
SK-OV-3 ovarian = tested on: SK-OV-3 ovarian
SN12C renal = tested on: SN12C renal
SNB-19 CNS = tested on: SNB-19 CNS
SNB-75 CNS = tested on: SNB-75 CNS
SR leukemia = tested on: SR leukemia
SW-620 colon = tested on: SW-620 colon
T-47D breast = tested on: T-47D breast
TK-10 renal = tested on: TK-10 renal
UACC-257 melanoma = tested on: UACC-257 melanoma
UACC-62 melanoma = tested on: UACC-62 melanoma
UO-31 renal = tested on: UO-31 renal

`Cc1c(C#N)cccc1[C@@H](C)Nc1nnc(C)c2cnc(N3CCOCC3)cc12` showed a GI50 ([…]-0 renal) of 13.1 µM, a TGI (786-0 renal) of 26.5 µM and a GI50 (A498 renal) of 12.1 µM. For the same compound, the TGI (A498 renal) was 24.6 µM, the GI50 (A549 NSCLC) was 16.7 µM and the TGI (A549 NSCLC) was 36.3 µM. For the same compound, the GI50 (ACHN renal) was 14.5 µM, the TGI (ACHN renal) was 31.6 µM and the GI50 (BT-549 breast) was 14.1 µM. It also gave a TGI (BT-549 breast) of 27.4 µM, a GI50 (CAKI-1 renal) of 10.5 µM and a TGI (CAKI-1 renal) of 23 µM. It also gave a GI50 (CCRF-CEM leukemia) of 19.5 µM, a TGI (CCRF-CEM leukemia) of 33.7 µM and a GI50 (COLO 205 colon) of 16.5 µM. It also gave a TGI (COLO 205 colon) of 30.5 µM, a GI50 (DU-145 prostate) of 18.5 µM and a TGI (DU-145 prostate) of 37.6 µM. It also gave a GI50 (EKVX NSCLC) of 11.7 µM, a TGI (EKVX NSCLC) of 26.8 µM and a GI50 (HCC-2998 colon) of 18.3 µM. The TGI (HCC-2998 colon) was 33.3 µM, the GI50 (HCT-15 colon) was 16.1 µM and the TGI (HCT-15 colon) was 29.9 µM. The GI50 (HL-60(TB) leukemia) was 21.8 µM, the TGI (HL-60(TB) leukemia) was 36.2 µM and the GI50 (HOP-62 NSCLC) was 14.2 µM. The TGI (HOP-62 NSCLC) was 27.9 µM, the GI50 (HOP-92 NSCLC) was 56.9 nM and the TGI (HOP-92 NSCLC) was 14.3 µM. For the same compound, the GI50 (HS 578T breast) was 13.8 µM, the TGI (HS 578T breast) was 26.9 µM and the GI50 (HT29 colon) was 15.7 µM. It also gave a TGI (HT29 colon) of 30 µM, a GI50 (IGROV1 ovarian) of 15.5 µM and a TGI (IGROV1 ovarian) of 31.4 µM. It also gave a GI50 (K-562 leukemia) of 163 nM, a TGI (K-562 leukemia) of 15 µM and a GI50 (KM12 colon) of 4.85 µM. The TGI (KM12 colon) was 22.2 µM, the GI50 (LOX IMVI melanoma) was 14 µM and the TGI (LOX IMVI melanoma) was 27.1 µM. The GI50 (M14 melanoma) was 17.2 µM, the TGI (M14 melanoma) was 31.1 µM and the GI50 (MALME-3M melanoma) was 16.6 µM. The TGI (MALME-3M melanoma) was 30.6 µM, the GI50 (MCF7 breast) was 15.8 µM and the TGI (MCF7 breast) was 35.5 µM. It also gave a GI50 (MDA-MB-231 breast) of 14.3 µM, a TGI (MDA-MB-231 breast) of 29.3 µM and a GI50 (MDA-MB-435 melanoma) of 18.2 µM. The TGI (MDA-MB-435 melanoma) was 32.4 µM, the GI50 (MDA-MB-468 breast) was 390 nM and the TGI (MDA-MB-468 breast) was 6.37 µM. The GI50 (MOLT-4 leukemia) was 12.8 µM, the TGI (MOLT-4 leukemia) was 25.5 µM and the GI50 (NCI-H226 lung) was 12.7 µM. It also gave a TGI (NCI-H226 lung) of 26.5 µM, a GI50 (NCI-H23 lung) of 10.6 µM and a TGI (NCI-H23 lung) of 23.2 µM. It also gave a GI50 (NCI-H322M lung) of 11.8 µM, a TGI (NCI-H322M lung) of 26.6 µM and a GI50 (NCI-H460 NSCLC) of 17.5 µM. The TGI (NCI-H460 NSCLC) was 32.2 µM, the GI50 (NCI-H522 lung) was 11.5 µM and the TGI (NCI-H522 lung) was 24 µM. It also gave a GI50 (NCI/ADR-RES ovarian) of 16.6 µM, a TGI (NCI/ADR-RES ovarian) of 32.1 µM and a GI50 (OVCAR-3 ovarian) of 13.4 µM. The TGI (OVCAR-3 ovarian) was 26.4 µM, the GI50 (OVCAR-4 ovarian) was 8.18 µM and the TGI (OVCAR-4 ovarian) was 22 µM. For the same compound, the GI50 (OVCAR-5 ovarian) was 19.1 µM, the TGI (OVCAR-5 ovarian) was 38.9 µM and the GI50 (OVCAR-8 ovarian) was 15 µM. For the same compound, the TGI (OVCAR-8 ovarian) was 29 µM, the GI50 (PC-3 prostate) was 17 µM and the TGI (PC-3 prostate) was 32.3 µM. It also gave a GI50 (RPMI-8226 leukemia) of 11.2 µM, a TGI (RPMI-8226 leukemia) of 23.3 µM and a GI50 (RXF 393 renal) of 12 µM. For the same compound, the TGI (RXF 393 renal) was 24.6 µM, the GI50 (SF-268 CNS) was 16 µM and the TGI (SF-268 CNS) was 30.8 µM. For the same compound, the GI50 (SF-295 CNS) was 14.7 µM, the TGI (SF-295 CNS) was 28 µM and the GI50 (SF-539 CNS) was 15.9 µM. It also gave a TGI (SF-539 CNS) of 29.3 µM, a GI50 (SK-MEL-28 melanoma) of 15.4 µM and a TGI (SK-MEL-28 melanoma) of 29.7 µM. For the same compound, the GI50 (SK-MEL-5 melanoma) was 11 µM, the TGI (SK-MEL-5 melanoma) was 23 µM and the GI50 (SK-OV-3 ovarian) was 16.7 µM. The TGI (SK-OV-3 ovarian) was 30.7 µM, the GI50 (SN12C renal) was 1650 nM and the TGI (SN12C renal) was 19.9 µM. The GI50 (SNB-19 CNS) was 14.3 µM, the TGI (SNB-19 CNS) was 37.5 µM and the GI50 (SNB-75 CNS) was 16.3 µM. For the same compound, the TGI (SNB-75 CNS) was 33.3 µM, the GI50 (SR leukemia) was 749 nM and the TGI (SR leukemia) was 18.1 µM. For the same compound, the GI50 (SW-620 colon) was 12.6 µM, the TGI (SW-620 colon) was 25.4 µM and the GI50 (T-47D breast) was 11.3 µM. For the same compound, the TGI (T-47D breast) was 24.6 µM, the GI50 (TK-10 renal) was 15.2 µM and the TGI (TK-10 renal) was 38.9 µM. The GI50 (UACC-257 melanoma) was 19.5 µM, the TGI (UACC-257 melanoma) was 33.9 µM and the GI50 (UACC-62 melanoma) was 16.6 µM. It also gave a TGI (UACC-62 melanoma) of 30.3 µM, a GI50 (UO-31 renal) of 13.3 µM and a TGI (UO-31 renal) of 26.8 µM.
